# Measured values published in ChEMBL document CHEMBL5728544, “Compounds and methods for the targeted degradation of interleukin-1 receptor- associated kinase 4 polypeptides” (2021).
# Molecular target: T1, Interleukin-1 receptor-associated kinase 4 (Homo sapiens, UniProt Q9NWZ3)
# T1 sequence (Q9NWZ3 whole entry): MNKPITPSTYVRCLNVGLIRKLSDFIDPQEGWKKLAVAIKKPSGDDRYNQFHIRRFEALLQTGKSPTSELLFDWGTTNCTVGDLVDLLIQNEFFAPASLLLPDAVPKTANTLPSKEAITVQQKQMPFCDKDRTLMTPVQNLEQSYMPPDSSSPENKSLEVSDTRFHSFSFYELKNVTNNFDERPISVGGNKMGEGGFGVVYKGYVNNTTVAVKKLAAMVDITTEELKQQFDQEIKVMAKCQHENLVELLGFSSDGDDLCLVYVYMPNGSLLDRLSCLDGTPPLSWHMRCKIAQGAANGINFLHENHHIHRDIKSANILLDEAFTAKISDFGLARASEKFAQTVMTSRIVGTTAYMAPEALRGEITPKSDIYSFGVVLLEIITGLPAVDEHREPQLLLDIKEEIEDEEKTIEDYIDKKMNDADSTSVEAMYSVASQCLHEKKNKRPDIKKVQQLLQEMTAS
# Assay: Biochemical Assay: A Z′-Lyte assay based on a fluorescence resonance energy transfer (FRET) readout was developed for measuring IRAK4-dependent phosphorylation of a FRET-peptide substrate as described by Thermo Fisher Scientific (Grand Island, N.Y.). At a starting concentration of 1.5 mM, the identified compounds were serially diluted with 100% dimethyl sulfoxide (DMSO) in 3-fold increments, into Greiner bio-one 96-well plates (cat. #: 650201, Greiner bio-one, Monroe, N.C.). Compounds were then transferred to intermediate Greiner bio-one 96-well plates and diluted 10-fold with Kinase assay buffer (25 mM HEPES, pH 7.5, 10 mM MgCl2, 10 mM MnCl2, 1 mM EGTA, and 0.01% Brij-35, 2 mM DTT). Three μL of the serially diluted compounds were then transferred in duplicate to low-volume 384-well black proxiplates (cat. #: 6008269; Perkin Elmer, Akron, Ohio), to give duplicate twelve-point concentration curves. Six μl of a 2.5× solution of IRAK4 enzyme (cat #: 40064, BPS Bioscience, San Diego, Calif.) in kinase buffer was added to each well, followed by a 10 minutes pre-incubation step. Reactions were initiated by adding 6 μl of a 2.5× substrate mix of ATP and Z′-Lyte Ser/Thr 7 peptide (cat. #: PV3180, Thermo Fisher Scientific, Grand Island, N.Y.) and proceeded at room temperature for 1 hour. […]
smiles,measurement,value
O=C1CCC(N2C(=O)c3ccc(OC4CCC(CN5CCN(Cc6ccc7c(c6)nc(NC(=O)c6cccc(C(F)(F)F)c6)n7C6CCC(CO)CC6)CC5)CC4)cc3C2=O)C(=O)N1 (stereo unspecified),IC50,< 30 nM
